pIC50: −log10 of the molar value.
Test: Inhibition of Phosphodiesterase 5 from human corpus cavernosum

pIC50 | Structure (SMILES)
7.72 | CCCc1nn(C)c2c(=O)[nH]c(-c3cc(S(=O)(=O)N4CCN(CCO)CC4)ccc3OCC)nc12 [5-{2-Ethoxy-5-[4-(2-hydroxy-ethyl)-piperazine-1-sulfonyl]-phenyl}-1-methyl-3-propyl-1,6-dihydro-pyrazolo[4,3-d]pyrimidin-7-one]
8.68 | CCCc1nn(C)c2c(=O)[nH]c(-c3cc(S(=O)(=O)N4CCN(C(N)=O)CC4)ccc3OCC)nc12 [4-[4-Ethoxy-3-(1-methyl-7-oxo-3-propyl-6,7-dihydro-1H-pyrazolo[4,3-d]pyrimidin-5-yl)-benzenesulfonyl]-piperazine-1-carboxylic acid amide]
5.35 | CCCc1[nH]nc2c(=O)[nH]c(-c3ccccc3)nc12 [5-Phenyl-3-propyl-1,6-dihydro-pyrazolo[4,3-d]pyrimidin-7-one]
6.00 | CCCc1[nH]nc2c(=O)[nH]c(-c3ccccc3O)nc12 [5-(2-Hydroxy-phenyl)-3-propyl-1,6-dihydro-pyrazolo[4,3-d]pyrimidin-7-one]

Source: BindingDB's records for doi:10.1016/0960-894X(96)00323-X (1996)
